With Cc1c(Cl)cc(C(C)(C)C)c(O)c1-c1nc2ccc(F)cc2c(=O)[nH]1 [Example 2, 2-(3-tert-Butyl-5-chloro-2-hydroxy-6-methyl-phenyl)-6-fluoro-3H-quinazolin-4-one] the melting point was 224 to 225 °C.
In the case of Cc1c(F)cc(C(C)(C)C)c(O)c1-c1nc2ccc(F)cc2c(=O)[nH]1 [Example 3, 2-(-3-tert-Butyl-5-fluoro-2-hydroxy-6-methyl-phenyl)-6-fluoro-3H-quinazolin-4-one], the melting point is reported as 247 to 248 °C.
For Cc1c(Cl)cc(C(C)(C)C)c(O)c1-c1nc2ccc(S(=O)(=O)C(F)(F)F)cc2c(=O)[nH]1 [Example 4, 2-(3-tert-Butyl-5-chloro-2-hydroxy-6-methyl-phenyl)-6-trifluoromethanesulfonyl-3H-quinazolin-4-one], the melting point was 297 to 298 °C.
Cc1c(F)cc(C(C)(C)C)c(O)c1-c1nc2ccc(S(=O)(=O)C(F)(F)F)cc2c(=O)[nH]1 [Example 6, 2-(3-tert-Butyl-5-fluoro-2-hydroxy-6-methyl-phenyl)-6-trifluoromethanesulfonyl-3H-quinazolin-4-one] gave a melting point of 257 to 258 °C.
CC(C)(C)c1cc2c(c(-c3nc4ccc(S(=O)(=O)C(F)(F)F)cc4c(=O)[nH]3)c1O)CCO2 [Example 7, 2-(6-tert-Butyl-5-hydroxy-2,3-dihydro-benzofuran-4-yl)-6-trifluoromethanesulfonyl-3H-quinazolin-4-one] gave a melting point of 235 to 237 °C.
In the case of CCc1c(Cl)cc(C(C)(C)C)c(O)c1-c1nc2ccc(S(=O)(=O)C(F)(F)F)cc2c(=O)[nH]1 [Example 8, 2-(-3-tert-Butyl-5-chloro-2-hydroxy-6-ethyl-phenyl)-6-trifluoromethanesulfonyl-3H-quinazolin-4-one], the melting point is reported as 285 to 286 °C.
